Measurements as given in US10604555B2, “GIP derivatives and uses thereof” (priority 2018, dated 2020).
“Also recorded” adds a separate entry of the source.

What was measured:
human GIP receptor = target: T1, human GIP receptor (Homo sapiens, UniProt P48546); assay: In vitro potency (CRE luciferase; whole cells), BHK CRE luc2P hGIPR; format: cell-based; settings: 0.2% HSA
T1 construct: expressed in transfected cells; host or cells: BHK (parent line BHKTS13), BHK CRE luc2P hGIPR clone #5
T1 sequence (P48546 22-466): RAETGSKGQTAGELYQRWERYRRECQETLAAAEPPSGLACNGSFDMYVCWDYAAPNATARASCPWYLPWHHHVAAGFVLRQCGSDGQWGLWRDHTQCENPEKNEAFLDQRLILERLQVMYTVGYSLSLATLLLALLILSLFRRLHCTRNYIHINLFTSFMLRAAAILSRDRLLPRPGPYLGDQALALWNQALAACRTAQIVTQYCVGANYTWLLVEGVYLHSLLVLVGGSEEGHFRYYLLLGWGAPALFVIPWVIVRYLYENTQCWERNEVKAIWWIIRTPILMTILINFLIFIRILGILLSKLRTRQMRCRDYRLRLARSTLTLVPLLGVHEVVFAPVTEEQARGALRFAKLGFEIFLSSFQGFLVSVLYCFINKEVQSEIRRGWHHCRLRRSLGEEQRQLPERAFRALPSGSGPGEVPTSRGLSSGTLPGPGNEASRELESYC
Method: (§1) In Vitro Potency (CRE Luciferase; Whole Cells)
(§2) The in vitro potency is the measure of human GIP, GLP-1 or glucagon receptor activation, respectively, in a whole cell assay.
(§3) In vitro potency was determined by measuring the response of the human GIP, GLP-1 or glucagon receptor in a reporter gene assay in individual cell lines. […] When the respective receptor is activated it results in the production of cAMP, which in turn results in the luciferase protein being expressed. When assay incubation is completed the luciferase substrate (luciferin) is added and the enzyme converts luciferin to oxyluciferin to produce bioluminescence. The luminescence is measured as the readout for the assay.
(§4) The cells were derived from a clone containing the CRE luciferase element and were established by further transfection with the respective receptor to obtain the current clone.
(§5) The cells were cultured at 5% CO2 in Cell Culture Medium. They were aliquoted and stored in liquid nitrogen. The cells were kept in passage and were seeded out the day before each assay.
(§6) The Assay Buffer consisted of 1% ovalbumin and 0.1% Pluronic F-68 in Assay Medium with the addition of human serum albumin at twice the indicated concentrations.
(§7) 1) Cells were plated at 5000 cells/well and incubated overnight.
(§8) 2) Cells were washed three times in PBS.
(§9) 3) Assay Medium (50 μl aliquot) with or without serum albumin was added to each well in the assay plate.
(§10) 4) Stocks of the test compounds and reference compounds were diluted to a concentration of 0.2 μM in Assay Buffer. […] 8) The cells were washed three times with PBS plus some liquid in each well. 9) A 100 μl aliquot of steadylite plus reagent was added to each well of the assay plate (reagent was light sensitive). 10) Each assay plate was covered with aluminum foil to protect it from light and shaken for 30 min at room temperature. 11) Each assay plate was read in a microtiter plate reader. Calculations and Results
(§11) The data from the microtiter plate reader was transferred to GraphPad Prism software. The software performs a non-linear regression (log(agonist) vs response).
(§12) A minimum of two replicates was measured for each sample. The reported values are averages of the replicates.

human GLP-1 receptor = target: T2, human GLP-1 receptor (Homo sapiens, UniProt P43220); assay: In vitro potency (CRE luciferase; whole cells), BHK CRE luc2P hGLP-1R; format: cell-based; settings: 0.2% HSA
T2 construct: expressed in transfected cells; host or cells: BHK (parent line BHKTS13), BHK CRE luc2P hGLP-1R clone #6
Method: as §1, §2, §3, §4, §5, §6, §7, §8, §9, §10, §11, §12

[1] = ThT fibrillation assay (physical stability); format: physicochemical; settings: 250 μM, pH 7.4, 37° C., 45 hours of incubation
Method: The Thioflavin T assay was performed as outlined in Schlein (2017), AAPS J, 19(2), 397-408.
This has traditionally been measured by visual inspection of the sample. However, that kind of measurement is very cumbersome and depending on the observer. Therefore, the application of a small molecule indicator probe is much more advantageous. Thioflavin T (ThT) is such a probe and has a distinct fluorescence signature when binding to fibrils [Naiki et al. (1989) Anal. Biochem. 177, 244-249; LeVine (1999) Methods. Enzymol. 309, 274-284].
The time course for fibril formation can be described by a sigmoidal curve with the following expression [Nielsen et al. (2001) Biochemistry 40, 6036-6046]:
Here, F is the ThT fluorescence at the time t. The constant t0 is the time needed to reach 50% of maximum fluorescence. The two important parameters describing fibril formation are the lag-time calculated by t0−2τ and the apparent rate constant kapp 1/τ.
Few of those intermediates nucleate to form a template onto which further intermediates may assembly and the fibrillation proceeds. The lag-time corresponds to the interval in which the critical mass of nucleus is built up and the apparent rate constant is the rate with which the fibril itself is formed.
Samples are prepared freshly before each assay. The drug substance was solved with 250 μM of the GIP derivative in 8 mM phosphate, 14 mg/mL propylene glycol, 58 mM phenol, pH 7.4. The pH of the sample was adjusted to the desired value using appropriate amounts of concentrated NaOH and HCl. Thioflavin T was added to the samples from a stock solution in H2O to a final concentration of 1 μM.
Sample aliquots of 200 μl were placed in each well of a 96 well microtiter plate (Packard OptiPlate™-96, white polystyrene). Four replica of each sample (corresponding to one test condition) was placed in one column of wells. The plate was sealed with Scotch Pad (Qiagen).
Incubation, shaking and measurement of the ThT fluorescence emission were done in a Fluoroskan Ascent FL fluorescence platereader (Thermo Labsystems). […] Fluorescence measurement was done using excitation through a 444 nm filter and measurement of emission through a 485 nm filter.
Each run was initiated by incubating the plate at the assay temperature for 10 min. The plate was measured every 20 minutes for a desired period of time. Between each measurement, the plate was shaken and heated as described.
After completion of the ThT assay the replica of each sample was pooled and centrifuged at 20000 rpm for 30 minutes at 18° C. The supernatant was filtered through a 0.22 μm filter and an aliquot was transferred to a HPLC vial. The concentration of the filtered sample relative to the initial sample (in percentage) was reported as the recovery.
The measurement points were saved in Microsoft Excel format for further processing and curve drawing and fitting was performed using GraphPad Prism. […] The data points were a mean of the four replica and shown with standard deviation error bars. Only data obtained in the same experiment (i.e. samples on the same plate) were presented in the same graph ensuring a relative measure of fibrillation between experiments.
The data set may be fitted to Eq. (1).

[2] = Dynamic Light Scattering Stability Index (DLS-SI); format: physicochemical; settings: concentration only 5 μM instead of 250 μM; pH 7.4, 25° C.
[3] = Chemical stability: HMWP formation by SEC-MS; format: physicochemical; settings: 37° C., 4 weeks, 250 μM, pH 7.4
Method: The aim of this study is to determine the chemical stability of GIP derivative compositions. As a measure of stability of the GIP derivative composition, the formation of high molecular weight peptide formation (% HMWP) as a function of time was analysed by size-exclusion chromatography (SEC-MS). Further, the purity loss of the GIP derivative compositions was measured by LCMS. Samples for chemical stability assays were freshly prepared before each assay. […] The pH of the sample was adjusted to the desired value using appropriate amounts of concentrated NaOH and HCl. […] Formation of covalent oligomers (HMWPs) was analysed and identified by a SEC-MS method. […] The LC system was coupled to both a TUV detector operated at 215 nm, 10 Hz and a high resolution QToF mass spectrometer from Waters (Synapt G2S) operated in positive ion mode and m/z range of 100 to 4000 with normal resolution setting. Lock mass correction against Leu-Enkephalin was done every 31 sec. Spectra were processed in MassLynx version 4.1 and MaxEnt deconvoluted.

[4] = Chemical stability: purity loss by LCMS; format: physicochemical; settings: 37° C., 4 weeks, 250 μM, pH 7.4
Method: The aim of this study is to determine the chemical stability of GIP derivative compositions. As a measure of stability of the GIP derivative composition, the formation of high molecular weight peptide formation (% HMWP) as a function of time was analysed by size-exclusion chromatography (SEC-MS). Further, the purity loss of the GIP derivative compositions was measured by LCMS. Samples for chemical stability assays were freshly prepared before each assay. […] The pH of the sample was adjusted to the desired value using appropriate amounts of concentrated NaOH and HCl. […] The column oven was kept at 55° C. […] The solvents were pumped from a binary solvent manager system and mixed on the high pressure side in a mixer with a volume of 50 μl. The gradient and flow can be seen in table 4: [table] A Flow-through-needle auto sampler at 8° C. was used to inject 1 μl of each sample. The effluent passed through a tunable UV detector (TUV) tuned to 215 nm. The outlet from the UV detector passed to the electrospray source of the mass spectrometer. The capillary was held at 3 kV and dry nitrogen gas was purged at a flow of 750 I/h and a temperature of 250° C. The source block was kept at 120° C. and the large bore cone was flushed with nitrogen at 50 I/h with standard electrode potentials on the rest of the instrument. The MS was operated in high resolution mode with a nominal resolution of 35000. The ToF analyser was operated in ADC mode with an m/z window from 100-2000.

T2 sequence (P43220 24-463): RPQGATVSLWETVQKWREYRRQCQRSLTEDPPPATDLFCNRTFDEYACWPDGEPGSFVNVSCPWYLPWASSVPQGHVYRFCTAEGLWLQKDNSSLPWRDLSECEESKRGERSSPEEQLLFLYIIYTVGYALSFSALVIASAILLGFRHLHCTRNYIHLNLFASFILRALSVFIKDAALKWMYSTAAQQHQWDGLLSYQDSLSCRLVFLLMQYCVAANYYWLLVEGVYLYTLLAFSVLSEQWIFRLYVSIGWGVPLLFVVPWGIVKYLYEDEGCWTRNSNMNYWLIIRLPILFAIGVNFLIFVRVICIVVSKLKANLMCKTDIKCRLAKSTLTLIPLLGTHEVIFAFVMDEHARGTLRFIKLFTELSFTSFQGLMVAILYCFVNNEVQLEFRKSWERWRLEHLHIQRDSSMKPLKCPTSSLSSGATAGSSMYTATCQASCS

Row | EC50 (human GIP receptor) [nM] | EC50 (human GLP-1 receptor) [nM] | ThT Assay Lag time [1] [h] | HMWP formation (%/month) [3] [%/month] | Purity loss (%/month) [4] [%/month] | Compound | DLS-SI precipitates [2]
1 | 0.0212 | > 100 |  |  |  | CCCC[C@H](NC(=O)[C@H](C)NC(=O)[C@@H](NC(=O)[C@H](CO)NC(=O)[C@H](Cc1ccc(O)cc1)NC(=O)[C@H](CC(=O)O)NC(=O)[C@H](CO)NC(=O)[C@@H](NC(=O)[C@H](Cc1ccccc1)NC(=O)[C@@H](NC(=O)CNC(=O)[C@H](CCC(=O)O)NC(=O)C(C)(C)NC(=O)[C@@H](Cc1ccc(O)cc1)NC(C)=O)[C@@H](C)O)[C@@H](C)CC)[C@@H](C)CC)C(=O)N[C@@H](CC(=O)O)C(=O)N[C@@H](CCCCN)C(=O)N[C@H](C(=O)N[C@@H](CCCNC(=N)N)C(=O)N[C@@H](CCC(N)=O)C(=O)N[C@@H](CCC(N)=O)C(=O)N[C@@H](CC(=O)O)C(=O)N[C@@H](Cc1ccccc1)C(=O)N[C@H](C(=O)N[C@@H](CCCCNC(=O)CC[C@H](NC(=O)CC[C@H](NC(=O)CC[C@H](NC(=O)CCCCCCCCCCCCCCCCC(=O)O)C(=O)O)C(=O)O)C(=O)O)C(=O)N[C@@H](Cc1c[nH]c2ccccc12)C(=O)N[C@@H](CC(C)C)C(=O)N[C@@H](CC(C)C)C(=O)N[C@@H](C)C(=O)N[C@@H](CCC(N)=O)C(=O)N[C@@H](CCCCN)C(=O)N1CCC[C@H]1C(N)=O)C(C)C)[C@@H](C)CC [Compound 46, N{1}-acetyl,N{Epsilon-24}-[(4S)-4-carboxy-4-[[(4S)-4-carboxy-4-[[(4S)-4-carboxy-4-(17-carboxyheptadecanoylamino)butanoyl]amino]butanoyl]amino]butanoyl]-[D-Tyr1,Aib2,Nle14,Arg18,Lys24,Pro31]-hGIP(1-31) amide] | 
2 | 0.00224 |  | 0 | 0.15 | 86.9 | CC[C@H](C)[C@H](NC(=O)[C@H](CO)NC(=O)[C@H](Cc1ccc(O)cc1)NC(=O)[C@H](CC(=O)O)NC(=O)[C@H](CO)NC(=O)[C@@H](NC(=O)[C@H](Cc1ccccc1)NC(=O)[C@@H](NC(=O)CNC(=O)[C@H](CCC(=O)O)NC(=O)[C@H](C)NC(=O)[C@@H](N)Cc1ccc(O)cc1)[C@@H](C)O)[C@@H](C)CC)C(=O)N[C@@H](C)C(=O)N[C@@H](CCSC)C(=O)N[C@@H](CC(=O)O)C(=O)N[C@@H](CCCCN)C(=O)N[C@H](C(=O)N[C@@H](Cc1c[nH]cn1)C(=O)N[C@@H](CCC(N)=O)C(=O)N[C@@H](CCC(N)=O)C(=O)N[C@@H](CC(=O)O)C(=O)N[C@@H](Cc1ccccc1)C(=O)N[C@H](C(=O)N[C@@H](CC(N)=O)C(=O)N[C@@H](Cc1c[nH]c2ccccc12)C(=O)N[C@@H](CC(C)C)C(=O)N[C@@H](CC(C)C)C(=O)N[C@@H](C)C(=O)N[C@@H](CCC(N)=O)C(=O)N[C@@H](CCCCN)C(=O)NCC(=O)O)C(C)C)[C@@H](C)CC [hGIP(1-31), reference compound] | visible as precipitation; also recorded: Yes^##
